Assay [1] deals with X. fastidiosa subsp. fastidiosa IVIA 5387.2.
Assay [2] has the same test system. The format is cell-based, Xylella fastidiosa.

Like-named read-outs stand apart in the source and are kept apart here. Square brackets hold non-standard residues; d marks the D form. Peptide text beside a SMILES is read from it.

Regarding `CC[C@H](C)[C@H](NC(=O)[C@H](C)NC(=O)[C@H](CCCNC(=N)N)NC(=O)[C@@H]1CCCN1C(=O)[C@@H](NC(=O)[C@H](CC(C)C)NC(=O)[C@H](CO)NC(=O)[C@H](Cc1ccccc1)NC(=O)[C@H](CC(C)C)NC(=O)[C@@H](N)Cc1ccccc1)[C@@H](C)CC)C(=O)NCC(=O)NCC(=O)N[C@@H](CC(C)C)C(=O)N[C@H](C(=O)N[C@@H](CO)C(=O)N[C@@H](C)C(=O)N[C@@H](Cc1ccccc1)C(=O)N[C@@H](CCCCN)C(N)=O)[C@@H](C)CC` [AamAP-R], the “Bactericidal activity: Reduction in viability (Log N0/N)” value in assay [1] was 0.78 ± 0.01 Log N0/N. The “Effect on X. fastidiosa growth in the antibiofilm test” value in assay [2] is “affected X. fastidiosa’s growth”.

With `CC[C@H](C)[C@H](NC(=O)[C@H](C)NC(=O)[C@H](CCCCN)NC(=O)[C@@H]1CCCN1C(=O)[C@@H](NC(=O)[C@H](CC(C)C)NC(=O)[C@H](CO)NC(=O)[C@H](Cc1ccccc1)NC(=O)[C@H](CC(C)C)NC(=O)[C@@H](N)Cc1ccccc1)[C@@H](C)CC)C(=O)NCC(=O)NCC(=O)N[C@@H](CC(C)C)C(=O)N[C@H](C(=O)N[C@@H](CO)C(=O)N[C@@H](C)C(=O)N[C@@H](Cc1ccccc1)C(=O)N[C@@H](CCCCN)C(N)=O)[C@@H](C)CC` [AamAP-S1], the “Bactericidal activity: Reduction in viability (Log N0/N)” value in assay [1] was 2.45 ± 0.09 Log N0/N. Also, the “log reduction of cell viability” value in assay [1] (3 h, 50 μM) is 2-3 log. In assay [2], the “Effect on X. fastidiosa growth in the antibiofilm test” value is on record as “affected X. fastidiosa’s growth”.

With `CC[C@H](C)[C@H](NC(=O)CN)C(=O)NCC(=O)N[C@@H](CCCCN)C(=O)N[C@@H](Cc1ccccc1)C(=O)N[C@@H](CC(C)C)C(=O)N[C@@H](Cc1c[nH]cn1)C(=O)N[C@@H](CO)C(=O)N[C@@H](C)C(=O)N[C@@H](CCCCN)C(N)=O` [Magainin 2(1-10)] (H-GIGKFLHSAK-NH2), in assay [1], the “Bactericidal activity: Reduction in viability (Log N0/N)” value was 0.00 ± 0.06 Log N0/N. For the same compound, in assay [2], the “Biofilm formation Level (antibiofilm activity)” value (“Biofilm formation Level” below) is given as “Low (key: High: high antibiofilm activity (ratio of biofilm formation from 0.01 to 0.2); Moderate: moderate activity (ratio from 0.29 to 0.47); Low: low activity (ratio from 0.72 to 0.77))”, the “Biofilm formation Ratio (treatment/NTC)” value is 0.77 ± 0.02 and the “Planktonic cells Ratio (treatment/NTC)” value was 1.67 ± 0.07.

As for `CC[C@H](C)[C@H](NC(=O)[C@H](CCCNC(=N)N)NC(=O)[C@H](Cc1ccccc1)NC(=O)[C@H](CCC(N)=O)NC(=O)[C@@H](N)CCCCN)C(=O)N[C@@H](CCCNC(=N)N)C(=O)N[C@H](C(=O)N[C@@H](CCCNC(=N)N)C(=O)N[C@H](C(N)=O)C(C)C)C(C)C` [Peptide 1029] (H-KQFRIRVRV-NH2), the “Bactericidal activity: Reduction in viability (Log N0/N)” value in assay [1] was 1.18 ± 0.08 Log N0/N. In assay [2], the “Biofilm formation Level” value is on record as “High (key: High: high antibiofilm activity (ratio of biofilm formation from 0.01 to 0.2); Moderate: moderate activity (ratio from 0.29 to 0.47); Low: low activity (ratio from 0.72 to 0.77))”, the “Biofilm formation Ratio (treatment/NTC)” value was 0.20 ± 0.01 and the “Planktonic cells Ratio (treatment/NTC)” value was determined as 1.71 ± 0.04.

In the case of `CC[C@H](C)[C@H](NC(=O)[C@H](CCCNC(=N)N)NC(=O)[C@H](Cc1ccccc1)NC(=O)[C@H](CCC(N)=O)NC(=O)[C@@H](N)C(C)C)C(=O)N[C@@H](CCCNC(=N)N)C(=O)N[C@H](C(=O)N[C@@H](CCCNC(=N)N)C(=O)N[C@H](C(=O)N[C@H](C(=O)N[C@H](C(=O)N[C@@H](CCCNC(=N)N)C(=O)N[C@@H](CCCCN)C(N)=O)[C@@H](C)CC)C(C)C)[C@@H](C)CC)C(C)C` [Peptide 1036] (H-VQFRIRVRIVIRK-NH2), the log reduction in assay [1] is reported as 3.48 log. For the same compound, in assay [2], the “Biofilm formation Level” value is listed as “High (key: High: high antibiofilm activity (ratio of biofilm formation from 0.01 to 0.2); Moderate: moderate activity (ratio from 0.29 to 0.47); Low: low activity (ratio from 0.72 to 0.77))” and the “Planktonic cells Ratio (treatment/NTC)” value turned out to be 2.16 ± 0.06.

Regarding `CC[C@@H](C)[C@@H](NC(=O)[C@H](N)CCCNC(=N)N)C(=O)N[C@@H](C(=O)N[C@H](Cc1c[nH]c2ccccc12)C(=O)N[C@@H](C(=O)N[C@H](CCCNC(=N)N)C(=O)N[C@@H](C(=O)N[C@H](CCCNC(=N)N)C(=O)N[C@H](CCCNC(=N)N)C(=O)N[C@H](Cc1c[nH]c2ccccc12)C(=O)N[C@H](Cc1ccccc1)C(=O)N[C@@H](C(N)=O)C(C)C)[C@H](C)CC)C(C)C)C(C)C` [RIJK2] (H-[dR][dI][dV][dW][dV][dR][dI][dR][dR][dW][dF][dV]-NH2), in assay [2], the “Biofilm formation Level” value is “High (key: High: high antibiofilm activity (ratio of biofilm formation from 0.01 to 0.2); Moderate: moderate activity (ratio from 0.29 to 0.47); Low: low activity (ratio from 0.72 to 0.77))” and the “Planktonic cells Ratio (treatment/NTC)” value is listed as 1.43 ± 0.09.

Turning to `CC[C@H](C)[C@H](NC(=O)[C@H](Cc1c[nH]c2ccccc12)NC(=O)[C@H](CCCCN)NC(=O)[C@H](CCCCN)NC(=O)[C@@H](NC(=O)[C@H](CCCNC(=N)N)NC(=O)[C@H](CCCNC(=N)N)NC(=O)[C@@H](NC(=O)[C@@H](N)Cc1c[nH]c2ccccc12)[C@@H](C)CC)[C@@H](C)CC)C(=O)N[C@@H](CCCNC(=N)N)C(=O)N[C@@H](CCCNC(=N)N)C(=O)N[C@H](C(=O)N[C@@H](Cc1c[nH]cn1)C(=O)N[C@@H](CCCCN)C(N)=O)C(C)C` [RR2-NH2] (H-WIRRIKKWIRRVHK-NH2), the “Bactericidal activity: Reduction in viability (Log N0/N)” value in assay [1] is given as 1.43 ± 0.12 Log N0/N. Besides, in assay [2], the “Biofilm formation Level” value is given as “High (key: High: high antibiofilm activity (ratio of biofilm formation from 0.01 to 0.2); Moderate: moderate activity (ratio from 0.29 to 0.47); Low: low activity (ratio from 0.72 to 0.77))”, the “Biofilm formation Ratio (treatment/NTC)” value was 0.13 ± 0.01 and the “Planktonic cells Ratio (treatment/NTC)” value was found to be 2.13 ± 0.07.

Take `CC[C@H](C)[C@H](NC(=O)[C@H](CCCNC(=N)N)NC(=O)[C@H](CCCNC(=N)N)NC(=O)[C@H](CC(C)C)NC(=O)[C@@H](N)Cc1c[nH]c2ccccc12)C(=O)N[C@@H](CCCCN)C(=O)N[C@@H](C)C(=O)N[C@@H](Cc1c[nH]c2ccccc12)C(=O)N[C@@H](CC(C)C)C(=O)N[C@@H](CCCNC(=N)N)C(=O)N[C@@H](CCCNC(=N)N)C(=O)N[C@@H](CCCCN)C(=O)N[C@@H](CCCNC(=N)N)C(=O)N[C@@H](CCCCN)C(N)=O` [RR3-NH2] (H-WLRRIKAWLRRKRK-NH2): the “Bactericidal activity: Reduction in viability (Log N0/N)” value in assay [1] is recorded as 0.89 ± 0.09 Log N0/N. Moreover, in assay [2], the “Biofilm formation Level” value is on record as “Moderate (key: High: high antibiofilm activity (ratio of biofilm formation from 0.01 to 0.2); Moderate: moderate activity (ratio from 0.29 to 0.47); Low: low activity (ratio from 0.72 to 0.77))”, the “Biofilm formation Ratio (treatment/NTC)” value worked out at 0.29 ± 0.01 and the “Planktonic cells Ratio (treatment/NTC)” value amounted to 1.66 ± 0.09.

For the compound Cecropin B, the “Bactericidal activity: Reduction in viability (Log N0/N)” value in assay [1] (3.1 µM) is 2.13 ± 0.10 Log N0/N; in assay [1] (12.5 μM) it was 3.19 ± 0.06 Log N0/N; in assay [1] (50 µM), 4.00 ± 0.10 Log N0/N. For the same compound, the log reduction in assay [1] (12.5 μM) is 3.19 log.
